Experimental data published in patent US12384969B2, “Enhancement of soil characteristics with lactobionate compounds” (Leprino Foods Company, priority 2017, dated 2025).

What was measured:
[1] = system: soil microbial biomass; assay: Soil microbial biomass carbon (MBC), chloroform-fumigation extraction, two-month laboratory soil incubation
[2] = Water absorbed after exposure to 100% relative humidity for 4 hours (FIG. 6); format: physicochemical; conditions: nine substances plus control
Description: When one of the hydroxyl groups occurs in the alpha position, the PHA is a polyhydroxy alpha-hydroxy acid (AHA); when an additional sugar is attached to the PHA structure the molecule is a bionic acid. […] The multiple hydroxyl groups in PHAs attract and hydrogen bond surrounding water molecules, which increase the humectant properties of the compounds.

[3] = Akron, CO (Ak) soil, HC, 1 month
[4] = Akron, CO (Ak) soil, LC, 1 month
[5] = Fresno, CA (Fr) soil, HC, 1 month
[6] = Fresno, CA (Fr) soil, HC, 2 wks
[7] = Fresno, CA (Fr) soil, LC, 1 month
[8] = Fresno, CA (Fr) soil, LC, 2 wks

SMILES | MBC [1, 3] | MBC ([1]; Akron, CO (Ak) soil, HC, 2 wks) | MBC [1, 4] | MBC ([1]; Akron, CO (Ak) soil, LC, 2 wks) | MBC [1, 5] | MBC [1, 6] | MBC [1, 7] | MBC [1, 8] | Weight of water absorbed per mole of substance [2] | Total MBC compared between LB amendments ([1]; at 1 month)
O=C([O-])[C@H](O)[C@@H](O)[C@H](O[C@@H]1O[C@H](CO)[C@H](O)[C@H](O)[C@H]1O)[C@H](O)CO.[K+] [K-LB, potassium lactobionate] | 7790.40^CD mg C kg -soil | 8349.51^AC mg C kg -soil | 10597.30^BC mg C kg -soil | 11189.75^A mg C kg -soil | 16689.85^AB mg C kg -soil | 1369.60^A mg C kg -soil | 7277.63^CD mg C kg -soil | 12167.76^A mg C kg -soil | – | –
O=C(O)[C@H](O)[C@@H](O)[C@H](O[C@@H]1O[C@H](CO)[C@H](O)[C@H](O)[C@H]1O)[C@H](O)CO [LBA, lactobionic acid] | – | – | – | – | – | – | – | – | highest | –
N.O=C(O)[C@H](O)[C@@H](O)[C@H](O[C@@H]1O[C@H](CO)[C@H](O)[C@H](O)[C@H]1O)[C@H](O)CO [NH4-LB, ammonium lactobionate] | 869.62^EF mg C kg -soil | 11037.60^A mg C kg -soil | 3225.38^DEF mg C kg -soil | 9911.52^A mg C kg -soil | 18504.80^A mg C kg -soil | 13627.26^A mg C kg -soil | 739.12^EF mg C kg -soil | 8610.50^AC mg C kg -soil | – | lower
O=C([O-])[C@H](O)[C@@H](O)[C@H](O[C@@H]1O[C@H](CO)[C@H](O)[C@H](O)[C@H]1O)[C@H](O)CO.O=C([O-])[C@H](O)[C@@H](O)[C@H](O[C@@H]1O[C@H](CO)[C@H](O)[C@H](O)[C@H]1O)[C@H](O)CO.[Ca+2] [Ca-LB, calcium lactobionate] | 6395.35^CDE mg C kg -soil | 9197.28^ABC mg C kg -soil | 9816.22^C mg C kg -soil | 13087.10^A mg C kg -soil | 11289.89^BC mg C kg -soil | 10362.94^A mg C kg -soil | 7560.73^CD mg C kg -soil | 10133.11^A mg C kg -soil | – | –
